According to ChEMBL document CHEMBL5143619, “Antimicrobial Prenylated Isoflavones from the Leaves of the Amazonian Medicinal Plant Vatairea guianensis Aubl” (J Nat Prod, 2022):
pIC50: −log10 of the molar value.

Assays:
A-375 = assay: Cytotoxicity against human A-375 cells assessed as reduction in cell viability incubated for 24 hrs by CellTiter-Blue cell viability assay; format: functional, cell-based; settings: A-375, 24 h
HCT-116 = assay: Cytotoxicity against human HCT-116 cells assessed as reduction in cell viability incubated for 24 hrs by CellTiter-Blue cell viability assay; format: functional, cell-based; settings: HCT-116, 24 h
MDA-MB-231 = assay: Cytotoxicity against human MDA-MB-231 cells assessed as reduction in cell viability incubated for 24 hrs by CellTiter-Blue cell viability assay; format: functional, cell-based; settings: MDA-MB-231, 24 h
[1] = Cytotoxicity against human HaCaT cells assessed as reduction in cell viability incubated for 24 hrs by CellTiter-Blue cell viability assay; format: toxicity, cell-based
[2] = Selectivity index, ratio of IC50 for human HaCaT cells to IC50 for human A-375 cells; format: toxicity; settings: read-out: Ratio IC50
[3] = Selectivity index, ratio of IC50 for human HaCaT cells to IC50 for human HCT-116 cells; format: toxicity; settings: read-out: Ratio IC50
[4] = Selectivity index, ratio of IC50 for human HaCaT cells to IC50 for human MDA-MB-231 cells; format: toxicity; settings: read-out: Ratio IC50
Trichophyton rubrum = assay: Antifungal activity against Trichophyton rubrum assessed as fungal growth inhibition incubated for 72 hrs by microplate reader analysis; format: functional, organism-based
Staphylococcus aureus = assay: Antibacterial activity against methicillin-resistant Staphylococcus aureus assessed as bacterial growth inhibition incubated for 5 hrs under shaking condition by resazurin dye based assay; format: functional, organism-based
[5] = Selectivity index, ratio of IC50 for human HaCaT cells to IC50 for antibacterial activity against methicillin-resistant Staphylococcus aureus; format: toxicity; settings: read-out: Ratio IC50
Enterococcus faecium = assay: Antibacterial activity against Enterococcus faecium assessed as bacterial growth inhibition incubated for 5 hrs by bromocresol purple dye based assay; format: functional, organism-based
Candida albicans = assay: Antifungal activity against Candida albicans assessed as fungal growth inhibition incubated for 5 hrs under shaking condition by resazurin dye based assay; format: functional, organism-based
Cryptococcus neoformans = assay: Antifungal activity against Cryptococcus neoformans assessed as fungal growth inhibition incubated for 5 hrs by microplate reader analysis; format: functional, organism-based
[6] = Selectivity index, ratio of IC50 for human HaCaT cells to IC50 for antibacterial activity against Enterococcus faecium; format: toxicity; settings: read-out: Ratio IC50
[7] = Selectivity index, ratio of IC50 for human HaCaT cells to IC50 for antifungal activity against Candida albicans; format: toxicity; settings: read-out: Ratio IC50
[8] = Selectivity index, ratio of IC50 for human HaCaT cells to IC50 for antifungal activity against Cryptococcus neoformans; format: toxicity; settings: read-out: Ratio IC50
[9] = Selectivity index, ratio of IC50 for human HaCaT cells to IC50 for antifungal activity against Trichophyton rubrum; format: toxicity; settings: read-out: Ratio IC50

Compound	pIC50 (A-375)	pIC50 (HCT-116)	pIC50 (MDA-MB-231)	IC50 at 24 h [1]	selectivity ratio [2]	selectivity ratio [3]	pIC50 (Staphylococcus aureus)	selectivity ratio [5]	also measured
CC(C)(O)CCc1c(O)cc(O)c2c(=O)c(-c3ccc(O)cc3)coc12	3.80	3.65	3.81	135 µM	0.8	1.4	–	–	selectivity ratio [4]: 0.9
Clc1ccccc1C(c1ccccc1)(c1ccccc1)n1ccnc1 [CLOTRIMAZOLE]	–	–	–	–	–	–	–	–	pIC50 (Trichophyton rubrum): 6.52
CC(C)(O)CCc1c(O)cc(O)c2c(=O)c(-c3ccc(O)c(O)c3)coc12	–	–	–	85.9 µM	–	–	4.53	2.9	–
CC(C)=CCc1c(O)cc(O)c2c(=O)c(-c3ccc(O)cc3)coc12	4.05	3.73	–	160 µM	1.8	0.9	–	–	–
COc1cccc2c1C(=O)c1c(O)c3c(c(O)c1C2=O)C[C@@](O)(C(=O)CO)C[C@@H]3O[C@H]1C[C@H](N)[C@H](O)[C@H](C)O1 [DOXORUBICIN]	6.40	4.31	4.59	50 µM	–	–	–	–	–
O=C(N[C@H](CO)[C@H](O)c1ccc([N+](=O)[O-])cc1)C(Cl)Cl [CHLORAMPHENICOL]	–	–	–	–	–	–	5.51	–	–
COc1ccc(-c2coc3c(CC=C(C)C)c(O)cc(O)c3c2=O)cc1O	4.23	4.06	3.96	69.8 µM	1.2	0.8	5.17	10.3	pIC50 (Enterococcus faecium): 4.89; pIC50 (Candida albicans; Candida albicans, 5 h): 4.57; pIC50 (Cryptococcus neoformans): 4.87; pIC50 (Trichophyton rubrum): 4.91; selectivity ratio [6]: 5.5; selectivity ratio [7]: 2.6; selectivity ratio [8]: 5.1; selectivity ratio [9]: 5.7; selectivity ratio [4]: 0.6
COc1ccc(-c2coc3c(CCC(C)(C)O)c(O)cc(O)c3c2=O)cc1O	–	–	–	–	–	–	4.31	> 5.5	–
CC1(C)S[C@@H]2[C@H](NC(=O)[C@H](N)c3ccccc3)C(=O)N2[C@H]1C(=O)O [AMPICILLIN]	–	–	–	–	–	–	–	–	pIC50 (Enterococcus faecium): 6.22
COc1cc(-c2coc3c(CCC(C)(C)O)c(O)cc(O)c3c2=O)ccc1O	3.60	3.63	–	207 µM	0.8	0.9	4.43	5.6	pIC50 (Enterococcus faecium): 4.09; selectivity ratio [6]: 2.6
COc1cc(-c2coc3c(CC=C(C)C)c(O)cc(O)c3c2=O)ccc1O	4.24	3.96	4.06	80.7 µM	1.4	1.9	–	–	selectivity ratio [4]: 1.5
C[C@@H]1[C@H](O)[C@@H](C)/C=C/C=C/C=C/C=C/C=C/C=C/C=C/[C@H](O[C@@H]2O[C@H](C)[C@@H](O)[C@H](N)[C@@H]2O)C[C@@H]2O[C@](O)(C[C@@H](O)C[C@@H](O)[C@H](O)CC[C@@H](O)C[C@@H](O)CC(=O)O[C@H]1C)C[C@H](O)[C@H]2C(=O)O [AMPHOTERICIN B]	–	–	–	–	–	–	–	–	pIC50 (Cryptococcus neoformans): 6.70
NYSTATIN	–	–	–	–	–	–	–	–	pIC50 (Candida albicans): 5.89
